Assay results taken from article PMC11361638, “Chemical genetic screens reveal defective lysosomal trafficking as synthetic lethal with NF1 loss” (Journal of Cell Science, 2024).

Target: T1, BORCS7 (Homo sapiens, UniProt Q96B45)
T1 construct: endogenous full-length protein in U87-MG cells, subunit of the eight-protein BORC
T1 sequence (Q96B45 1-106): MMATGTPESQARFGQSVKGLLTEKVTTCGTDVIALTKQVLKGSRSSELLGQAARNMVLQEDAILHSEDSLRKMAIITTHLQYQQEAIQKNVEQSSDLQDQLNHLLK
Test: click-chemistry pulldown on alkyne resin, LC-MS/MS
Format: cell-based
Conditions: U87-MG cells treated with 2 µM for 2 h, lysed in 8 M urea; labelled compound; binding subunit within BORC not resolved

SMILES: Cn1cnnc1S/C=C/C(=O)c1ccc(CCN=[N+]=[N-])cc1 [az-Y102]
- iBAQ area ratio: Click-chemistry enriched pulldown results for p21 and BORCS7.
